# According to patent publication EP4147700A1, “N-(4-(AZAINDAZOL-6-YL)-PHENYL)-SULFONAMIDES FOR USE IN THE TREATMENT OF SICKLE CELL DISEASE” (LQT Therapeutics Inc., priority 2021, dated 2023):
# Experiments:
# SGK1 = target: T1, SGK1 (Homo sapiens, UniProt O00141); experiment: SGK1 target engagement: Western blot of SGK1 phosphorylation at Thr256 in CD34+ cells; assay type: cell-based; settings: CD34+ cells from a healthy donor, day 11 of differentiation, 1h after exposure (FIG. 5)
# T1 construct: endogenous in cells; host or cells: Mobilized human CD34+ HSPC from a healthy donor, day 11 of erythroid differentiation
# T1 sequence (O00141 1-431): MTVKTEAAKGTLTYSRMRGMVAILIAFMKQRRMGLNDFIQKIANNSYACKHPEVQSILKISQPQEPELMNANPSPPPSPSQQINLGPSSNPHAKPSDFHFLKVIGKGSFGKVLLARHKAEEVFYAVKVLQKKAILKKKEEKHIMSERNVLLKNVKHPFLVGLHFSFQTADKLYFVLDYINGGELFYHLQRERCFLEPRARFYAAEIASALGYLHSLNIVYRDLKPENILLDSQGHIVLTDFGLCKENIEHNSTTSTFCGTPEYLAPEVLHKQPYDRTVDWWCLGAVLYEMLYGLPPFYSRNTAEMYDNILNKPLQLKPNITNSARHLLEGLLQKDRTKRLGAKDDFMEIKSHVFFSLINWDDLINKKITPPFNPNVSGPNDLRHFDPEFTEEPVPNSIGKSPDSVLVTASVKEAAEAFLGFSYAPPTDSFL
# Method: (§1) To verify SGK1 target engagement by Compound 346, CD34+ cells from a healthy donor were exposed to Compound 346 at the indicated dose (µM), harvested and lysed at the indicated time points. Phosphorylation of SGK1 at threonine 256 (Thr256) was assessed by Western blot using antibody anti-pSGK1 (Thr256) (Thermofisher) and anti-SGK1 (Cell Signaling). Human CD34+ cells, cells were collected on Day 11 of differentiation then exposed to Compound 346. According to the time course, cells were collected and lysed using RIPA buffer mixed with a phosphatase and protease inhibitors cocktail (Thermofisher). Sample protein concentrations were measured with the Pierce […] (ThermoFisher). The α-tubulin antibody (Cell Signaling) served as an internal control. Immunoreactive proteins were visualized by using an ECL® (enhanced chemiluminescence) detection system (BioRad). Optical density was measured with ImageJ software (National Institutes of Health, Bethesda, MD) and the ratio of phospho-SGK1 to total SGK1 was calculated, normalized on α-tubulin, and plotted based on the densitometry measurements. […] Furthermore, SGK1 downstream pathway activation was verified by measuring phosphorylation of FOXO3 at Serine 315, a direct target of activated SGK1. Quantification of FOXO3 activation was assessed by Western Blot using antibodies anti-pFOXO3 (Ser315) and anti-FOXO3 (Cell Signaling). […]
# sickle erythroid cells = experiment: Sickling assay under hypoxia (ImageStream flow cytometry) of 21-day differentiated erythroid cells; assay type: cell-based, human; settings: cells derived from CD34+ cells of sickle patients, 21 days of differentiation, 4 hours at 2% oxygen, compared to vehicle, p < 0.01 (FIG. 6)
# Method: To evaluate the effect of Compound 346 in sickle erythroid cells sickling, a sickling assay was conducted. […] Purified CD34+ cells were differentiated for 21 days. At the end of the differentiation, cells were incubated for 4 hours at 2% of oxygen in Hemox Buffer (Fisher Scientific) supplemented with 10mM Glutamine (Gibco) and 0.5% BSA (Sigma Aldrich). After exposure to hypoxia, cells were fixed with 25% of glutaraldehyde (Sigma Aldrich) and transferred to tubes for flowcytometry analysis, using a Amnis® ImageStream® flow cytometer to assess abnormal shaped cells. Cells were determined using RMS of brightfield image, and single cells using Area vs Aspect Ratio of brightfield image, and live cells were identified using a Live Dead NIR stain. Single living cells were analyzed using the following masking of the brightfield image: Skeleton (M1, Ch1, Thin), Object (M1, Ch1, Tight). Finally, the sickling factor was calculated using the following feature: Length_Skeleton (M1, CH1, Thin)/Width_(M1, Ch1, Tight). Cells with a sickle factor feature of 1.4 or higher were sickled. Cells with a sickle factor feature less than 1.4 were not sickled.
# [1] = test system: CD34+ cells from patients with sickle cell disease; settings: for F-cell (HbF+) frequency in enucleated GlyA+ cells: CD34+ cells from patients with sickle cell disease, compared to control (DMSO) (FIG. 4A)
# Excerpt: To measure the effect of Compound 346 on fetal hemoglobin induction in CD34+ cells from patients with sickle cell disease, circulating CD34+ progenitor cells were isolated from total blood obtained from sickle cell patients, by performing a positive selection for CD34+ cells with magnetic beads (Miltenyi Biotec). Purified CD34+ cells were differentiated for 14 days. After differentiation, cells were fixed and stained with CD235a, CD71 and fetal hemoglobin antibodies for flowcytometry analysis.
# FOXO3 = experiment: SGK1 downstream pathway: Western blot of FOXO3 phosphorylation at Serine 315 in CD34+ cells; assay type: cell-based, human; settings: CD34+ cells from a healthy donor, day 11 of differentiation, 1-hour time point, densitometry (FIG. 5)
# Method: as §1
# human CD34+ cells = settings: for F-cell (HbF+) frequency in enucleated GlyA+ cells / fold change in fetal hemoglobin expression: 14 days of differentiation; for F-cell (HbF+) frequency in enucleated GlyA+ cells: compared to control (DMSO) (FIG. 3A); for fold change in fetal hemoglobin expression: human CD34+ cells, compared to control (Vehicle as DMSO) (FIG. 3B)
# Method: Mobilized CD34+ Human Stem/Progenitor Cells (HSPC) from healthy individuals were cultured for 3 days in a maintenance media consisting of X-VIVO 10 (VWR), 100 U/mL penicillin-streptomycin (ThermoFisher), 2mM L-glutamine (Fisher Scientific), 100 ng/mL Recombinant Human Stem Cell Factor (SCF), 100 ng/mL Recombinant Human Thrombopoietin (TPO) and 100 ng/mL Recombinant Human Flt-3 Ligand (Flt-3L) (all three from ThermoFisher). Cells were differentiated into erythroid cells using a three-step differentiation protocol developed by the Luc Douay group (Giarratana et al. 2005). In brief, CD34+ cells were cultured for 7 days in Step 1 media, consisting of Iscove's modified Dulbecco's medium (IMDM) (ThermoFisher) supplemented with 1X GlutaMAX, 100 U/mL penicillin-streptomycin (ThermoFisher), 5% human AB+plasma, 330 ug/mL human holo-transferrin, 10 ug/mL human insulin, 2 U/mL heparin, 1 uM/mL hydrocortisone (Sigma-Aldrich), 3 U/mL recombinant human erythropoietin (EPO) (ThermoFisher), 100 ng/mL SCF (ThermoFisher) and 5 ng/mL interleukin 3 (IL-3) (SigmaAldrich). On day 7, cells were transferred to step 2 media, a step 1 media without hydrocortisone and IL-3 and cultured for 3-4 days. Then cells were cultured for 8-9 days in step 3 media, a step 2 media without SCF. […] To determine the percentage of HbF-positive cells (F-cells), differentiated cells were fixed and permeabilized using a fixation kit (ThermoFisher). Cells were stained with PE-Cy7-conjugated anti-CD235 or PE-conjugated anti-CD71 antibodies. HbF levels were detected using Allophycocyanin (APC)-conjugated anti-HbF antibody (ThermoFisher). The acquisition of stained cells was performed on BD FACSCanto™ and the analysis was run using FlowJo™ Software.
# After 14 days of differentiation, cells were fixed and stained with CD235a, CD71 and fetal hemoglobin antibodies for flowcytometry analysis.
# [2] = CD34+ HSPC from healthy individuals
compound,measurement,setting,value
Cc1n[nH]c2nc(-c3ccc(NS(=O)(=O)c4cc(Cl)ccc4F)cc3)nc(OC3CCN(C(C)C)CC3)c12 [Compound 346],"p-SGK1 (Thr256), ratio of phospho-SGK1 to total SGK1",SGK1,decrease
same,sickling of erythroid cells induced by hypoxia,sickle erythroid cells,significantly protected from sickling
same,F-cell (HbF+) frequency in enucleated GlyA+ cells,[1],increasing
same,HbF+ fold change to control,"[1]; CD34+ cells from sickle cell patients, 14 days of differentiation, compared to control (Vehicle as DMSO) (FIG. 4B)",1.5 fold
same,phosphorylation of FOXO3 at Serine 315,FOXO3,decrease
same,F-cell (HbF+) frequency in enucleated GlyA+ cells,human CD34+ cells; [2],increases
same,increase of HbF+ cells (HbF+ fold change to control),"human CD34+ cells; CD34+ HSPC from healthy individuals, 21 days of differentiation, compared to DMSO (FIG. 2B)",about 1.5 fold
same,frequency of F-cells (HbF+),"human CD34+ cells; CD34+ HSPC from healthy individuals, 21 days of differentiation, compared to vehicle (DMSO) (FIG. 2A)",increased
same,fold change in fetal hemoglobin expression,human CD34+ cells,"1,5 fold"
"NC(=O)NO [Hydroxyurea, hydroxyurea, reference compound]",F-cell (HbF+) frequency in enucleated GlyA+ cells,[1],increase
same,F-cell (HbF+) frequency in enucleated GlyA+ cells,human CD34+ cells; [2],increases
same,fold change in fetal hemoglobin expression,human CD34+ cells,"1,5 fold"
